Tested on: gene expression in C. difficile 630Δerm
Test: RNA-seq, genes differentially expressed in LL-37

## CC[C@H](C)[C@H](NC(=O)[C@H](CCCCN)NC(=O)[C@H](CCC(=O)O)NC(=O)[C@H](CCCCN)NC(=O)[C@H](CO)NC(=O)[C@H](CCCCN)NC(=O)[C@H](CCCNC(=N)N)NC(=O)[C@H](Cc1ccccc1)NC(=O)[C@H](Cc1ccccc1)NC(=O)[C@H](CC(=O)O)NC(=O)CNC(=O)[C@H](CC(C)C)NC(=O)[C@@H](N)CC(C)C)C(=O)NCC(=O)N[C@@H](CCCCN)C(=O)N[C@@H](CCC(=O)O)C(=O)N[C@@H](Cc1ccccc1)C(=O)N[C@@H](CCCCN)C(=O)N[C@@H](CCCNC(=N)N)C(=O)N[C@H](C(=O)N[C@H](C(=O)N[C@@H](CCC(N)=O)C(=O)N[C@@H](CCCNC(=N)N)C(=O)N[C@H](C(=O)N[C@@H](CCCCN)C(=O)N[C@@H](CC(=O)O)C(=O)N[C@@H](Cc1ccccc1)C(=O)N[C@@H](CC(C)C)C(=O)N[C@@H](CCCNC(=N)N)C(=O)N[C@@H](CC(N)=O)C(=O)N[C@@H](CC(C)C)C(=O)N[C@H](C(=O)N1CCC[C@H]1C(=O)N[C@@H](CCCNC(=N)N)C(=O)N[C@H](C(=O)N[C@@H](CCC(=O)O)C(=O)N[C@@H](CO)C(=O)O)[C@@H](C)O)C(C)C)[C@@H](C)CC)C(C)C)[C@@H](C)CC [LL-37]
2 µg/ml LL-37, BHIS
  CD630_18890 fold change in LL-37: 4.54
  CD630_18900 fold change in LL-37: 3.60
  CD630_19120 (eutA) fold change in LL-37: 0.20
  CD630_19150 (eutL) fold change in LL-37: 0.21
  CD630_19180 (eutK) fold change in LL-37: 0.40
  CD630_19210 fold change in LL-37: 0.48
  CD630_19220 (eutN) fold change in LL-37: 0.25
  CD630_19440 fold change in LL-37: 2.03
  CD630_19670 fold change in LL-37: 2.01
  CD630_20140 (ilvD) fold change in LL-37: 2.90
  CD630_20160 fold change in LL-37: 0.26
  CD630_20270 fold change in LL-37: 2.69
  CD630_20280 (racX) fold change in LL-37: 2.39
  CD630_20451 fold change in LL-37: 0.46
  CD630_20751 fold change in LL-37: 2.21
  CD630_20910 fold change in LL-37: 2.49
  CD630_21270 fold change in LL-37: 2.34
  CD630_21430 fold change in LL-37: 0.48
  CD630_21510 fold change in LL-37: 0.48
  CD630_21640 (ldh) fold change in LL-37: 2.95
  CD630_21710 fold change in LL-37: 0.34
  CD630_21930 (cwp24) fold change in LL-37: 2.54
  CD630_22010 fold change in LL-37: 0.40
  CD630_22330 (asrA) fold change in LL-37: 2.43
  CD630_23090 fold change in LL-37: 2.29
  CD630_23300 (xpt) fold change in LL-37: 0.49
  CD630_23310 (mtlD) fold change in LL-37: 0.12
  CD630_23320 (mtlF) fold change in LL-37: 0.12
  CD630_23330 (mtlR) fold change in LL-37: 0.14
  CD630_23340 (mtlA) fold change in LL-37: 0.15
  CD630_23380 (4hbD) fold change in LL-37: 12.95
  CD630_23390 (cat2) fold change in LL-37: 13.27
  CD630_23400 fold change in LL-37: 13.14
  CD630_23410 (abfD) fold change in LL-37: 14.81
  CD630_23420 (sucD) fold change in LL-37: 12.71
  CD630_23430 (cat1) fold change in LL-37: 11.85
  CD630_23440 fold change in LL-37: 10.85
  CD630_23700 (nadC) fold change in LL-37: 0.42
  CD630_23710 (nadB) fold change in LL-37: 0.40
  CD630_23720 (nadA) fold change in LL-37: 0.40
  CD630_23790 (buk2) fold change in LL-37: 3.13
  CD630_23800 (iorB) fold change in LL-37: 10.81
  CD630_23810 (iorA) fold change in LL-37: 13.66
  CD630_23820 fold change in LL-37: 13.76
  CD630_24291 fold change in LL-37: 0.23
  CD630_24610 (dnaK) fold change in LL-37: 0.48
  CD630_24620 (grpE) fold change in LL-37: 0.41
  CD630_24630 (hrcA) fold change in LL-37: 0.49
  CD630_25090 fold change in LL-37: 0.40
  CD630_25100 fold change in LL-37: 0.48
  CD630_25110 fold change in LL-37: 0.48
  CD630_25150 fold change in LL-37: 0.38
  CD630_25160 (ansB) fold change in LL-37: 0.44
  CD630_25171 fold change in LL-37: 2.04
  CD630_25560 fold change in LL-37: 4.24
  CD630_26140 fold change in LL-37: 0.12
  CD630_26640 (murE) fold change in LL-37: 0.35
  CD630_26650 fold change in LL-37: 0.43
  CD630_26691 fold change in LL-37: 0.50
  CD630_26700 fold change in LL-37: 0.43
  CD630_26710 fold change in LL-37: 0.38
  CD630_26820 (pfo) fold change in LL-37: 2.03
  CD630_26860 fold change in LL-37: 0.41
  CD630_26870 fold change in LL-37: 0.46
  CD630_27090 fold change in LL-37: 2.37
  CD630_27250 fold change in LL-37: 2.07
  CD630_27491 fold change in LL-37: 0.38
  CD630_27500 (agrB) fold change in LL-37: 0.49
  CD630_27640 fold change in LL-37: 0.38
  CD630_27840 (cwp6) fold change in LL-37: 2.30
  CD630_27880 fold change in LL-37: 0.48
  CD630_28770 (fhuB) fold change in LL-37: 0.35
  CD630_28780 (fhuD) fold change in LL-37: 0.30
  CD630_29320 fold change in LL-37: 0.30
  CD630_29330 fold change in LL-37: 0.50
  CD630_29341 fold change in LL-37: 0.29
  CD630_29360 fold change in LL-37: 0.44
  CD630_29400 fold change in LL-37: 0.42
  CD630_29420 fold change in LL-37: 0.41
  CD630_29430 fold change in LL-37: 0.45
  CD630_29440 fold change in LL-37: 0.44
  CD630_29470 fold change in LL-37: 0.30
  CD630_29490 fold change in LL-37: 0.46
  CD630_29620 fold change in LL-37: 2.13
  CD630_29710 (bioY) fold change in LL-37: 0.45
  CD630_30250 fold change in LL-37: 0.47
  CD630_30260 fold change in LL-37: 0.45
  CD630_30270 fold change in LL-37: 0.25
  CD630_30340 fold change in LL-37: 0.38
  CD630_30360 fold change in LL-37: 0.39
  CD630_30720 fold change in LL-37: 0.41
  CD630_30990 fold change in LL-37: 0.40
  CD630_31000 fold change in LL-37: 0.36
  CD630_31150 (bglA4) fold change in LL-37: 0.37
  CD630_31360 (bglA7) fold change in LL-37: 0.35
  CD630_31370 (bglF5) fold change in LL-37: 0.39
  CD630_31750 (cggR) fold change in LL-37: 0.22
  CD630_32090 fold change in LL-37: 0.47
  CD630_32100 fold change in LL-37: 0.48
  CD630_32220 (sdaB) fold change in LL-37: 0.49
  CD630_32570 fold change in LL-37: 0.37
  CD630_32600 (phoU) fold change in LL-37: 0.49
  CD630_32620 (pstA) fold change in LL-37: 0.48
  CD630_33440 fold change in LL-37: 0.39
  CD630_33730 (mgtA) fold change in LL-37: 3.39
  CD630_33740 fold change in LL-37: 3.92
  CD630_33750 (mgtC) fold change in LL-37: 2.96
  CD630_33790 fold change in LL-37: 2.14
  CD630_33911 fold change in LL-37: 2.66
  CD630_35370 (phnH) fold change in LL-37: 0.39
  CD630_36010 fold change in LL-37: 0.35
2 µg/ml LL-37, BHIS (Table S5)
  CD630_22290 fold change in LL-37: 0.51
sub-MIC LL-37, at least 2-fold, p < 0.05
  genes induced: 107 genes
sub-MIC LL-37, p < 0.05
  genes differentially expressed at least 2-fold: 228 genes

Reference: PMC6117091, “The C. difficile clnRAB operon initiates adaptations to the host environment in response to LL-37” (PLoS Pathogens, 2018)
